Laboratory results reported in US8986731B2, “Pegylated liposomal formulations of hydrophobic photosensitizers for photodynamic therapy” (Biolitec Pharma Marketing Ltd, priority 2003, dated 2015).

Test: Pharmacokinetic properties in HT29 tumour-bearing mice (HPLC of plasma and tissues; tolerability of injection)
Format: in vivo, athymic NMRI nu/nu mice
Conditions: lateral tail vein injection, 50 μL
Procedure: HT 29 human colorectal carcinoma cells are used. Six to eight weeks old adult female athymic NMRI nu/nu mice (Taconic M&B, Denmark) weighting 22-24 g were inoculated subcutaneously in the left hind thigh with 0.1 ml of 8×10^7 HT29 human colorectal carcinoma cells/ml in 5% glucose. Two to three weeks later, as the tumor reached a surface diameter of 7-8 mm, and a thickness of 2-3 mm in height, 50 μL of Temoporfin (0.2 mg/kg) diluted in ethanol or 50 μL pegylated liposomal formulation of mTHPC (0.04 mg/ml) were injected into lateral tail vein. Following the drug injection animals were held under normal animal house lighting conditions (average illumination of 200 Lux, maximum 600 Lux of fluorescent tube light, with no exposure to sunlight or daylight). No photo-reaction was observed during this period. […] The fluorescence wave length was set at 410 nm for excitation and 653 nm for emission. The tissue concentration of mTHPC was calculated from a calibration curve constructed by plotting the peak height values of mTHPC standard solutions versus their concentrations.

With `Oc1cccc(-c2c3nc(c(-c4cccc(O)c4)c4ccc([nH]4)c(-c4cccc(O)c4)c4nc(c(-c5cccc(O)c5)c5ccc2[nH]5)CC4)C=C3)c1` [Temoporfin] the “Adverse effects during or immediately after injection” value was “No adverse effects”.
